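Compound exposure: 48 hours, 5 concentrations, 96-well plates. TGI is the concentration that stops growth completely.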
Key:
Assay in all cases: NCI-60 cell line screen, 48 h
UACC-62 melanoma = system: UACC-62 melanoma
IGROV1 ovarian = system: IGROV1 ovarian
SF-268 CNS = system: SF-268 CNS
MOLT-4 leukemia = system: MOLT-4 leukemia
NCI-H460 lung = system: NCI-H460 lung
HCT-116 colon = system: HCT-116 colon
M14 melanoma = system: M14 melanoma
MALME-3M melanoma = system: MALME-3M melanoma
NCI/ADR-RES ovarian = system: NCI/ADR-RES ovarian
MCF7 breast = system: MCF7 breast
NCI-H226 lung = system: NCI-H226 lung
SF-539 CNS = system: SF-539 CNS
HOP-92 NSCLC = system: HOP-92 NSCLC
TK-10 renal = system: TK-10 renal
SK-OV-3 ovarian = system: SK-OV-3 ovarian
HL-60(TB) leukemia = system: HL-60(TB) leukemia
RXF 393 renal = system: RXF 393 renal
OVCAR-3 ovarian = system: OVCAR-3 ovarian
UACC-257 melanoma = system: UACC-257 melanoma
KM12 colon = system: KM12 colon
MDA-MB-231 breast = system: MDA-MB-231 breast
MDA-N = system: MDA-N
SR leukemia = system: SR leukemia
CAKI-1 renal = system: CAKI-1 renal
SK-MEL-2 melanoma = system: SK-MEL-2 melanoma
SW-620 colon = system: SW-620 colon
OVCAR-8 ovarian = system: OVCAR-8 ovarian
SK-MEL-5 melanoma = system: SK-MEL-5 melanoma
CCRF-CEM leukemia = system: CCRF-CEM leukemia
786-0 renal = system: 786-0 renal
HT29 colon = system: HT29 colon
COLO 205 colon = system: COLO 205 colon
A498 renal = system: A498 renal
OVCAR-4 ovarian = system: OVCAR-4 ovarian
SN12C renal = system: SN12C renal
HS 578T breast = system: HS 578T breast
NCI-H23 lung = system: NCI-H23 lung
SF-295 CNS = system: SF-295 CNS
ACHN renal = system: ACHN renal
SK-MEL-28 melanoma = system: SK-MEL-28 melanoma
PC-3 prostate = system: PC-3 prostate
T-47D breast = system: T-47D breast
EKVX NSCLC = system: EKVX NSCLC
DU-145 prostate = system: DU-145 prostate
RPMI-8226 leukemia = system: RPMI-8226 leukemia
OVCAR-5 ovarian = system: OVCAR-5 ovarian
MDA-MB-435 = system: MDA-MB-435
K-562 leukemia = system: K-562 leukemia
U251 CNS = system: U251 CNS
HCT-15 colon = system: HCT-15 colon
A549 NSCLC = system: A549 NSCLC
BT-549 breast = system: BT-549 breast
UO-31 renal = system: UO-31 renal
HCC-2998 colon = system: HCC-2998 colon
LOX IMVI melanoma = system: LOX IMVI melanoma
SNB-19 CNS = system: SNB-19 CNS
SNB-75 CNS = system: SNB-75 CNS
NCI-H522 lung = system: NCI-H522 lung
HOP-62 NSCLC = system: HOP-62 NSCLC

O=c1[nH]cc(Cl)c(=O)[nH]1
TGI (UACC-62 melanoma): > 100 µM
TGI (IGROV1 ovarian): > 100 µM
TGI (SF-268 CNS): > 100 µM
TGI (MOLT-4 leukemia): > 100 µM
TGI (NCI-H460 lung): > 100 µM
TGI (HCT-116 colon): > 100 µM
TGI (M14 melanoma): > 100 µM
TGI (MALME-3M melanoma): > 100 µM
TGI (NCI/ADR-RES ovarian): > 100 µM
TGI (MCF7 breast): > 100 µM
TGI (NCI-H226 lung): > 100 µM
TGI (SF-539 CNS): > 100 µM
TGI (HOP-92 NSCLC): > 100 µM
TGI (TK-10 renal): > 100 µM
TGI (SK-OV-3 ovarian): > 100 µM
TGI (HL-60(TB) leukemia): > 100 µM
TGI (RXF 393 renal): > 100 µM
TGI (OVCAR-3 ovarian): > 100 µM
TGI (UACC-257 melanoma): > 100 µM
TGI (KM12 colon): > 100 µM
TGI (MDA-MB-231 breast): > 100 µM
TGI (MDA-N): > 100 µM
TGI (SR leukemia): > 100 µM
TGI (CAKI-1 renal): > 100 µM
TGI (SK-MEL-2 melanoma): > 100 µM
TGI (SW-620 colon): > 100 µM
TGI (OVCAR-8 ovarian): > 100 µM
TGI (SK-MEL-5 melanoma): > 100 µM
TGI (CCRF-CEM leukemia): > 100 µM
TGI (786-0 renal): > 100 µM
TGI (HT29 colon): > 100 µM
TGI (COLO 205 colon): > 100 µM
TGI (A498 renal): > 100 µM
TGI (OVCAR-4 ovarian): > 100 µM
TGI (SN12C renal): > 100 µM
TGI (HS 578T breast): > 100 µM
TGI (NCI-H23 lung): > 100 µM
TGI (SF-295 CNS): > 100 µM
TGI (ACHN renal): > 100 µM
TGI (SK-MEL-28 melanoma): > 100 µM
TGI (PC-3 prostate): > 100 µM
TGI (T-47D breast): > 100 µM
TGI (EKVX NSCLC): > 100 µM
TGI (DU-145 prostate): > 100 µM
TGI (RPMI-8226 leukemia): > 100 µM
TGI (OVCAR-5 ovarian): > 100 µM
TGI (MDA-MB-435): > 100 µM
TGI (K-562 leukemia): > 100 µM
TGI (U251 CNS): > 100 µM
TGI (HCT-15 colon): > 100 µM
TGI (A549 NSCLC): > 100 µM
TGI (BT-549 breast): > 100 µM
TGI (UO-31 renal): > 100 µM
TGI (HCC-2998 colon): > 100 µM
TGI (LOX IMVI melanoma): > 100 µM
TGI (SNB-19 CNS): > 100 µM
TGI (SNB-75 CNS): > 100 µM
TGI (NCI-H522 lung): > 100 µM

C=C1CC(Cn2ccc(=O)[nH]c2=O)(c2ccc(Cl)cc2)OC1=O (stereo unspecified)
TGI (UACC-62 melanoma): 13.4 µM
TGI (IGROV1 ovarian): 9.98 µM
TGI (SF-268 CNS): 43.5 µM
TGI (MOLT-4 leukemia): 4.47 µM
TGI (NCI-H460 lung): 26.1 µM
TGI (HCT-116 colon): 5.63 µM
TGI (M14 melanoma): 12.9 µM
TGI (MALME-3M melanoma): 7.13 µM
TGI (NCI/ADR-RES ovarian): 19 µM
TGI (MCF7 breast): 7.56 µM
TGI (NCI-H226 lung): 49.9 µM
TGI (SF-539 CNS): 30.4 µM
TGI (HOP-92 NSCLC): 3.89 µM
TGI (TK-10 renal): 4.72 µM
TGI (SK-OV-3 ovarian): 28.3 µM
TGI (HL-60(TB) leukemia): > 100 µM
TGI (OVCAR-3 ovarian): 21.8 µM
TGI (UACC-257 melanoma): 12.4 µM
TGI (KM12 colon): > 58.4 µM
TGI (MDA-MB-231 breast): 31.4 µM
TGI (MDA-N): 17.1 µM
TGI (SR leukemia): 11.7 µM
TGI (CAKI-1 renal): 6.77 µM
TGI (SK-MEL-2 melanoma): 22.5 µM
TGI (SW-620 colon): 4.31 µM
TGI (HOP-62 NSCLC): 36.4 µM
TGI (OVCAR-8 ovarian): 24.5 µM
TGI (SK-MEL-5 melanoma): 10.8 µM
TGI (CCRF-CEM leukemia): 3.46 µM
TGI (786-0 renal): 4.83 µM
TGI (HT29 colon): 13.4 µM
TGI (COLO 205 colon): 3.44 µM
TGI (A498 renal): 32.4 µM
TGI (OVCAR-4 ovarian): 3.61 µM
TGI (SN12C renal): 28.1 µM
TGI (HS 578T breast): 38.7 µM
TGI (NCI-H23 lung): 12.8 µM
TGI (SF-295 CNS): 38.6 µM
TGI (ACHN renal): 10.4 µM
TGI (SK-MEL-28 melanoma): 13.7 µM
TGI (PC-3 prostate): 19.2 µM
TGI (T-47D breast): 12.1 µM
TGI (EKVX NSCLC): 35 µM
TGI (DU-145 prostate): 23.2 µM
TGI (RPMI-8226 leukemia): 3.94 µM
TGI (OVCAR-5 ovarian): 30.5 µM
TGI (MDA-MB-435): 21 µM
TGI (K-562 leukemia): 5.38 µM
TGI (U251 CNS): 31.7 µM
TGI (HCT-15 colon): 6.91 µM
TGI (A549 NSCLC): 32.2 µM
TGI (BT-549 breast): 18 µM
TGI (UO-31 renal): 33 µM
TGI (HCC-2998 colon): 31.2 µM
TGI (LOX IMVI melanoma): 5.94 µM
TGI (SNB-19 CNS): > 71.1 µM
TGI (SNB-75 CNS): 30.9 µM
TGI (NCI-H522 lung): 2.26 µM
